Assay: Drug releasing test of the vaginal ring (shaking water bath, HPLC)
Assay type: physicochemical
Settings: device of the current invention vs prior art device, FIG. 4 vs FIG. 3 and FIG. 6 vs FIG. 5
Protocol: Drug Releasing Test: Devices used: 1. High Pressure Liquid Chromatography (HPLC). Shimadzu LC-1 OA T • 2. Shaking water bath: HZS-H Process: • 1. Tie the vaginal ring into a big test tube (125 ml). Add 100 ml distilled water into the tube under 37C. Shake the testing tube for 24 hours with shaking rate of 60/minute. Then take the vaginal ring out. • 2. The standard sample is the Mifepristone provided by Shanghai Family Planning Institute. • 3. C-18-[…] Analytic column (Brand: Shimadzu): Pre-set HPLC. The testing conditions are: • Wavelength 310 nm. • Sensitivity: 0.1 AUFS • Speed: 3 Atten. 5 • Flow phase: methanol: water=70:30 • Moving speed=1 ml/minute • Injection amount: 10 μl • Peak time: 5.48 minutes Take 23 μl/ml standard sample, 10 μl injection sample to get the peak area of 656504-656800. Prepare the calibration based on the amount contained in 100 ml.

Compound	delivery rate over days, compared with prior art vaginal ring
CC#C[C@]1(O)CC[C@H]2[C@@H]3CCC4=CC(=O)CCC4=C3[C@@H](c3ccc(N(C)C)cc3)C[C@@]21C [Mifestone, Mifepristone]	significantly higher over a longer period of time
C#C[C@]1(O)CC[C@H]2[C@@H]3CCC4=Cc5oncc5C[C@]4(C)[C@H]3CC[C@@]21C [Danazol]	higher delivery rate of this drug over a longer period of time

— patent publication US20050197651A1, “Vaginal ring preparation and its application” (priority 2001, published 2005)
